Results as given in patent US8507562B2, “Synthesis of (1)-beta-elemene, (-)-beta-elemenal, (-)-beta-elemenol, (-)-beta-elemene fluoride and their analogues, intermediates, and composition and uses thereof” (HYWE Pharmaceuticals, Inc., priority 2004, dated 2013).
Values after ≈ are worked out from the molar mass of the structure shown. Read-outs that look alike come from different tables or passages of the source. Each block holds one compound with its values, some of them ahead of it.

Columns and labels:
A-172 brain tumor = assay: MTT survival assay; type: cell-based, human; settings: Homo sapiens, A 172, read-out: IC50
Protocol: (§3) The MTT assay is a commonly used method in evaluation of cell survival, based on the ability of viable cells to convert MTT, a soluble tetrazolium salt [3-(4,5-dimethylthuazole-2-yl)-2,5 diphenyl tetrazolium bromide], into an insoluble formazan precipitate, which is quantitated by spectrophotometry following solubilization in dimethyl sulfoxide (DMSO).
(§4) The cells were then solubilized in 125 μl of DMSO and absorbance readings were taken using a 96-well Opsys MRI Microplate Reader (ThermoLabsystems; Chantilly, Va.). The amount of MTT dye reduction was calculated based on the difference between absorbance at 570 nm and at 630 nm. Cell viability in treated cells was expressed as the amount of dye reduction relative to that of untreated control cells. The wells which contained only medium and 10 μl of MTT were used as blanks for the plate reader. Three sets of experiments were performed in 8-12 wells for each treatment.
(§5) The cells were then solubilized in 125 μl of DMSO and absorbance readings were taken using a 96-well Opsys MRI Microplate Reader (ThermoLabsystems; Chantilly, Va.). The amount of MTT dye reduction was calculated based on the difference between absorbance at 570 nm and at 630 nm. Cell viability in treated cells was expressed as the amount of dye reduction relative to that of untreated control cells. The wells which contained only medium and 10 μI of MTT were used as blanks for the plate reader. Three sets of experiments were performed in 8-12 wells for each treatment.

U-87 brain tumor = assay: MTT survival assay; type: cell-based, human; settings: Homo sapiens, read-out: IC50
Protocol: as §3, §4, §5

STTG1 brain tumor = assay: MTT survival assay; type: cell-based, human; settings: Homo sapiens, read-out: IC50
Protocol: as §3, §4

H-460 lung cancer = assay: MTT survival assay; type: cell-based, human; settings: 2 × 10^4 cells/ml
Protocol: as §3, §4
(§6) In brief, carcinoma cells treated with test articles alone, in 96-well tissue culture dishes were incubated with MTT (2 μg/ml) for 4 h. The cells were then solubilized in 125 μl of DMSO and absorbance readings were taken using a 96-well Opsys MRI Microplate Reader (ThermoLabsystems; Chantilly, Va.). The amount of MTT dye reduction was calculated based on the difference between absorbance at 570 nm and at 630 nm. Cell viability in treated cells was expressed as the amount of dye reduction relative to that of untreated control cells. The wells that contained only medium and 10 μl of MTT were used as blanks for the plate reader.
as §5

A549 lung cancer = assay: MTT survival assay; settings: 2 × 10^4 cells/ml
Protocol: as §3, §6

human lung cancer A549 = settings: 30 mg/kg/time ip × 7 qd
human liver cancer QGY = settings: 30 mg/kg/time ip × 7 qd
[1] = tested on: human breast cancer ao10/17; settings: 30 mg/kg/time ip × 7 qd
[2] = tested on: human prostate cancer PC-3M; settings: 30 mg/kg/time ip × 7 qd
human colon cancer HCT-8 = settings: 30 mg/kg/time ip × 7 qd
[3] = tested on: human breast cancer Bcap-37; settings: 30 mg/kg/time ip × 7 qd
human glioma cells = assay: MTT assay, elemene analogs; type: cell-based; settings: for IC50: Homo sapiens, Glioma cell
Protocol: as §3, §4

[4] = tested on: Colon Cancer Cells HCT-116; assay: MTS cell viability assay; type: cell-based, human; settings: combinations with Elemene 160 μg/ml, n = 8
[5] = tested on: Colon Cancer Cells HCT-15; assay: MTS cell viability assay; settings: combinations with Elemene 160 μg/ml, n = 8
Protocol: (§7) Cells were maintained at 37° C. in a humidified atmosphere including 5% CO2. […] Drugs were dissolved in 100% DMSO and then diluted in medium for experiments.

[6] = tested on: Colon Cancer Cells Colo 205; assay: MTS cell viability assay; settings: Colo 205, drug alone
Protocol: as §7

[7] = tested on: human glioma G422 (xenograph in brain); assay: Tumor xenographed in mice brain, survival; type: in vivo; settings: 5 mg/kg/time ip × 7 qd
Protocol: (§1) Mice model with tumor xenographed in mice brain: Glioma cell line G-422 or SHG44 (log phase) were diluted to 2×10^7/ml in cell culture hood (no bacteria environment). Each mouse was injected with 0.05 ml of tumor cell in its brain. […] The survival time of these mice was recorded in the next 30 days. The life extension was calculated using the following formula: Life Extension Rate=[( […])/Average survival days of control group[×100 Results: […]

[8] = tested on: human glioma SHG44 (xenograph in brain); assay: Tumor xenographed in mice brain, survival; type: in vivo, nude mice; settings: 5 mg/kg/time ip × 7 qd
Protocol: as §1

[9] = tested on: human glioma G-422 (xenograph under skin); assay: Xenograph under skin, injection directly into tumor; type: in vivo, mice; settings: 5 mg ip × 10 qd
Source text: (§2) The mice were killed after 3 weeks.

[10] = tested on: human glioma SHG-44G (xenograph under skin); assay: as above; type: in vivo, nude mice; settings: listed as printed Pos. Cont. VM-26: 60 mg/kg it × 10 qd
Source text: as §2
Nude mice grew on the cengliu rack.

Compound: C=C[C@]1(C)CC[C@@H]([C@@](C)(O)CO)C[C@H]1C(=C)C (single isomer, unassigned) [Lr-1]
IC50 (A-172 brain tumor; A172, 24 h): 106 µg/mL (≈ 445 µM)
IC50 (A-172 brain tumor; A172, 48 h): 94 µg/mL (≈ 394 µM)
IC50 (A-172 brain tumor; A172, 72 h): 90 µg/mL (≈ 378 µM)
IC50 (U-87 brain tumor; U87, 24 h): 98 µg/mL (≈ 411 µM)
IC50 (U-87 brain tumor; U87, 48 h): 94 µg/mL (≈ 394 µM)
IC50 (U-87 brain tumor; U87, 72 h): 89 µg/mL (≈ 373 µM)
IC50 (STTG1 brain tumor; STTG1, 24 h): 108 µg/mL (≈ 453 µM)
IC50 (STTG1 brain tumor; STTG1, 48 h): 98 µg/mL (≈ 411 µM)
IC50 (STTG1 brain tumor; STTG1, 72 h): 94 µg/mL (≈ 394 µM)

Compound: C=C[C@]1(C)CC[C@@H](C(=C)C=O)C[C@H]1C(=C)C [(−)-beta-elemenal, (−)-Beta-elemenal]
IC50 (H-460 lung cancer; H460, 24 h): 27.6 µg/mL (≈ 126 µM)
IC50 (H-460 lung cancer; H460, 48 h): 25.5 µg/mL (≈ 117 µM)
IC50 (H-460 lung cancer; H460, 72 h): 11.0 µg/mL (≈ 50.4 µM)
IC50 (A549 lung cancer; A549, 24 h): 45.6 µg/mL (≈ 209 µM)
IC50 (A549 lung cancer; A549, 48 h): 35.0 µg/mL (≈ 160 µM)
IC50 (A549 lung cancer; A549, 72 h): 35.0 µg/mL (≈ 160 µM)

Compound: O=P1(N(CCCl)CCCl)NCCCO1 (centres unmarked) [CTX, Cyclophosphamide, reference compound]
Inhibition Rate % (human lung cancer A549): 85.13%
Tumor Weight (g) X ± SD (human lung cancer A549): 0.29 ± 0.07 g
Inhibition Rate % (human liver cancer QGY): 89.37%
Tumor Weight (g) X ± SD (human liver cancer QGY): 0.22 ± 0.12 g
Inhibition Rate % [1]: 87.50%
Tumor Weight (g) X ± SD [1]: 0.15 ± 0.08 g
Inhibition Rate % [2]: 87.27%
Tumor Weight (g) X ± SD [2]: 0.205 ± 0.1 g
Inhibition Rate % (human colon cancer HCT-8): 88.11%
Tumor Weight (g) X ± SD (human colon cancer HCT-8): 0.170 ± 0.08 g
Inhibition Rate % [3]: 84.23%
Tumor Weight (g) X ± SD [3]: 0.205 ± 0.12 g

IC50 (human glioma cells; 48 hr): 89.6 µg/mL (≈ 376 µM)
IC50 (human glioma cells; 72 hr): 90.9 µg/mL (≈ 381 µM)
Compound: C=C[C@]1(C)CC[C@@H]([C@](C)(O)CO)C[C@H]1C(=C)C [Lr-2, (S)-2-((1R,3S,4S)-3-isopropenyl-4-methyl-4-vinyl-cyclohexyl)-propane-1,2-diol]
IC50 (A-172 brain tumor; A172, 24 h): 122 µg/mL (≈ 512 µM)
IC50 (A-172 brain tumor; A172, 48 h): 96 µg/mL (≈ 403 µM)
IC50 (A-172 brain tumor; A172, 72 h): 65 µg/mL (≈ 273 µM)
IC50 (U-87 brain tumor; U87, 24 h): 90 µg/mL (≈ 378 µM)
IC50 (U-87 brain tumor; U87, 48 h): 94 µg/mL (≈ 394 µM)
IC50 (U-87 brain tumor; U87, 72 h): 87 µg/mL (≈ 365 µM)
IC50 (STTG1 brain tumor; STTG1, 24 h): 112 µg/mL (≈ 470 µM)
IC50 (STTG1 brain tumor; STTG1, 48 h): 98 µg/mL (≈ 411 µM)
IC50 (STTG1 brain tumor; STTG1, 72 h): 97 µg/mL (≈ 407 µM)

IC50 (human glioma cells; 24 hr): > 200 µg/mL
IC50 (human glioma cells; 48 hr): > 200 µg/mL
IC50 (human glioma cells; 72 hr): > 200 µg/mL
Compound: C=C[C@]1(C)CC[C@@H](C(C)=O)C[C@H]1C(=C)C [Lr-3, 1-((1R,3S,4S)-3-Isopropenyl-4-methyl-4-vinyl-cyclohexyl)-ethanone]
IC50 (A-172 brain tumor; A172, 24 h): > 140 µg/mL
IC50 (A-172 brain tumor; A172, 48 h): 134 µg/mL (≈ 649 µM)
IC50 (A-172 brain tumor; A172, 72 h): 106 µg/mL (≈ 514 µM)
IC50 (U-87 brain tumor; U87, 24 h): 118 µg/mL (≈ 572 µM)
IC50 (U-87 brain tumor; U87, 48 h): > 120 µg/mL
IC50 (U-87 brain tumor; U87, 72 h): 120 µg/mL (≈ 582 µM)
IC50 (STTG1 brain tumor; STTG1, 24 h): 108 µg/mL (≈ 523 µM)
IC50 (STTG1 brain tumor; STTG1, 48 h): > 120 µg/mL
IC50 (STTG1 brain tumor; STTG1, 72 h): 110 µg/mL (≈ 533 µM)

IC50 (human glioma cells; 24 hr): > 200 µg/mL
IC50 (human glioma cells; 48 hr): > 200 µg/mL
IC50 (human glioma cells; 72 hr): > 200 µg/mL
Compound: C=C(C)C1=C(C)C(=O)C[C@@H](C(=C)C)C1 [Lr-6, (S)-3,5-Diisopropenyl-2-methyl-cyclohex-2-enone]

IC50 (human glioma cells; 24 hr): > 200 µg/mL
IC50 (human glioma cells; 48 hr): > 200 µg/mL
IC50 (human glioma cells; 72 hr): > 200 µg/mL
Compound: C=C(C)[C@H]1CC=C(C)C(=O)C1 [Lr-9, (S)-5-Isopropenyl-2-methyl-cyclohex-2-enone]

IC50 (human glioma cells; 24 hr): > 200 µg/mL
IC50 (human glioma cells; 48 hr): > 200 µg/mL
IC50 (human glioma cells; 72 hr): > 200 µg/mL
Compound: C=C(C)[C@@H]1CC=C(C)C(=O)C1 [Lr-10, (R)-5-Isopropenyl-2-methyl-cyclohex-2-enone]

Compound: O=C1[O][Pt]2([NH][C@@H]3CCCC[C@H]3[NH]2)[O]C1=O [Oxaliplatin]
IC50 ([4]; HCT-116, 4 hr/24 hr × 2): 106 ± 15.7 µg/mL
IC50 ([4]; HCT-116, 4 hr/24 hr × 3): 65.7 ± 7.02 µg/mL
IC50 ([4]; HCT-116, 4 hr/24 hr): 148 ± 13.7 µg/mL
IC50 ([4]; HCT-116, 4 hr): 373 ± 69.6 µg/mL
IC50 ([4]; HCT-116, 8 hr): 92.2 ± 15.7 µg/mL
IC50 ([4]; HCT-116, 12 hr): 74.4 ± 6.28 µg/mL
IC50 ([4]; HCT-116, 24 hr): 68.9 ± 7.92 µg/mL
IC50 ([4]; HCT-116, 48 hr): 64.5 ± 7.89 µg/mL
IC50 ([4]; HCT-116, 72 hr): 57.2 ± 10.5 µg/mL
IC50 ([5]; HCT-15, 4 hr/24 hr × 2): 16.4 ± 4.64 µg/mL
IC50 ([5]; HCT-15, 4 hr/24 hr × 3): 11.8 ± 3.69 µg/mL
IC50 ([5]; HCT-15, 4 hr/24 hr): 22.0 ± 7.66 µg/mL
IC50 ([5]; HCT-15, 4 hr): 28.4 ± 6.80 µg/mL
IC50 ([5]; HCT-15, 8 hr): 25.7 ± 5.61 µg/mL
IC50 ([5]; HCT-15, 12 hr): 19.3 ± 3.21 µg/mL
IC50 ([5]; HCT-15, 48 hr): 14.5 ± 2.66 µg/mL
IC50 ([5]; HCT-15, 72 hr): 14.9 ± 3.33 µg/mL
IC50 ([6]; Time 4 hr, n = 8): 166 ± 7.51 µg/mL
IC50 ([6]; Time 4 hr/24 hr × 2, n = 8): 21.8 ± 1.06 µg/mL
IC50 ([6]; Time 4 hr/24 hr × 3, n = 8): 9.90 ± 1.01 µg/mL
IC50 ([6]; Time 4 hr/24 hr, n = 8): 29.5 ± 7.05 µg/mL
IC50 ([6]; Time 8 hr, n = 8): 124 ± 13.1 µg/mL
IC50 ([6]; Time 12 hr, n = 8): 69.7 ± 12.7 µg/mL
IC50 ([6]; Time 24 hr, n = 8): 25.2 ± 7.85 µg/mL
IC50 ([6]; Time 48 hr, n = 8): 20.4 ± 2.14 µg/mL
IC50 ([6]; Time 72 hr, n = 8): 13.4 ± 2.42 µg/mL

Compound: COc1cc([C@@H]2c3cc4c(cc3[C@@H](O[C@@H]3O[C@@H]5CO[C@@H](c6cccs6)O[C@H]5[C@H](O)[C@H]3O)[C@H]3COC(=O)[C@H]23)OCO4)cc(OC)c1O [VM26, reference compound]
Average Life Span (day) X± SD [7]: 21.5 ± 3.4 days
Average Life Span (day) X± SD [8]: 30.8 ± 3.7 days
Survival time as % of control (T/C) ([8]; compared to control): 196.75%
Inhibition Rate % [9]: 85.78%
Tumor Weight X ± SD ([9]; in g (unit assumed)): 0.32 ± 0.12
Inhibition Rate % [10]: 61.08%
Tumor Weight X ± SD ([10]; in g (unit assumed)): 0.72 ± 0.12

IC50 in human glioma cells (human glioma cells; 24 hr): 106.2 µg/mL
IC50 in human glioma cells (human glioma cells; 48 hr): 105.2 µg/mL
IC50 in human glioma cells (human glioma cells; 72 hr): 103.3 µg/mL
Compound: (1R,5S)-1-Isobutyl-3,5-diisopropenyl-2-methyl-cyclohex-2-enol, and (1S,5S)-1-Isobutyl-3,5-diisopropenyl-2-methyl-cyclohex-2-enol [Lr-8]

IC50 in human glioma cells (human glioma cells; 24 hr): >200 µg/mL
IC50 in human glioma cells (human glioma cells; 48 hr): >200 µg/mL
IC50 in human glioma cells (human glioma cells; 72 hr): >200 µg/mL
Compound: (1S,5S)-3,5-Diisopropenyl-2-methyl-cyclohex-2-enol, and (1R,5S)-3,5-Diisopropenyl-2-methyl-cyclohex-2-enol [Lr-7]

IC50 in human glioma cells (human glioma cells; 24 hr): >200 µg/mL
IC50 in human glioma cells (human glioma cells; 48 hr): >200 µg/mL
IC50 in human glioma cells (human glioma cells; 72 hr): >200 µg/mL
Compound: (S)-1,5-Diisopropenyl-2-methyl-cyclohex-2-enol, and (R)-1,5-Diisopropenyl-2-methyl-cyclohex-2-enol [Lr-4]

IC50 in human glioma cells (human glioma cells; 24 hr): >200 µg/mL
IC50 in human glioma cells (human glioma cells; 48 hr): >200 µg/mL
IC50 in human glioma cells (human glioma cells; 72 hr): >200 µg/mL
Compound: (S)-5-Isopropenyl-1,2-dimethyl-cyclohex-2-enol, and (R)-5-Isopropenyl-1,2-dimethyl-cyclohex-2-enol [Lr-5]

Compound: (−)-Beta-elemene Fluoride
IC50 (H-460 lung cancer; H460, 24 h): 71.3 µg/mL
IC50 (H-460 lung cancer; H460, 48 h): 62.5 µg/mL
IC50 (H-460 lung cancer; H460, 72 h): 68.6 µg/mL
IC50 (A549 lung cancer; A549, 24 h): 83.0 µg/mL
IC50 (A549 lung cancer; A549, 48 h): 64.5 µg/mL
IC50 (A549 lung cancer; A549, 72 h): 71.4 µg/mL
